Reference: US20250332149A1, “PIPERIDINE COMPOUNDS AND PHARMACEUTICAL COMPOSITIONS” (Lumos Pharma, Inc., priority 2024, published 2025)

Columns and labels:
Type in all cases: in vivo, human
[1] = system: serum IGF-1; assay: Phase 1 study Part 1: PD, serum IGF-1 concentration
Experimental: The serum IGF-1 concentration values remained stable over the sampling time interval post dose. At pre-dose, mean (SD) serum IGF-1 concentration values were 200.9 (50.41) ng/mL for Treatment A, 192.6 (50.55) ng/mL for Treatment B, 192.5 (47.67) ng/mL for Treatment C, and 195.8 (47.16) ng/mL for Treatment D. At 24 h post-dose, the serum concentration values rose to 224.7 (48.70) ng/mL in Treatment A, 224.2 (50.24) ng/mL in Treatment B, 230.4 (60.81) ng/mL in Treatment C, and 223.7 (56.75) ng/mL in Treatment D.

[2] = system: serum IGF-1; assay: Phase 1 study Part 2: PD, serum IGF-1 concentration fasted vs fed
Experimental: The serum IGF-1 concentration values remained stable over the sampling time interval post dose. At pre-dose, mean (SD) serum […] concentration values were 209.2 (54.28) ng/mL for Treatment A and 188.8 (26.11) ng/mL for Treatment B. At 24 h post-dose, the serum GH concentration value peaked at 244.7 (37.66) ng/mL in Treatment A and 220.8 (43.50) ng/mL in Treatment B.

[3] = system: serum growth hormone (GH); assay: Phase 1 study Part 1: PD, serum GH concentration; settings: for serum GH concentration, peak, mean (SD): 1 h post-dose; for serum GH concentration, mean (SD): pre-dose
Description: • Part 1: To evaluate PD (GH response) of the new LUM-201 formulation as capsule (test). • Part 2: To measure PD (GH response) to LUM-201 administered as capsule (test) in fasted versus fed state. PD Results (pt 1): Individual serum growth hormone (GH) concentration time data were obtained for each subject and treatment cohort. […] Following the administration of LUM-201, the serum GH concentration values increased post dose as expected. At pre-dose, mean (SD) serum GH concentration values were 0.2970 (0.7404) ng/mL for Treatment A, 0.2052 (0.3174) ng/mL for Treatment B, 0.5303 (1.354) ng/mL for Treatment C, and 0.1454 (0.1981) ng/mL for Treatment D. The serum GH concentration value peaked at 1 h post-dose for all treatment groups. 17.10 (15.07) ng/mL in Treatment A, 16.55 (16.36) ng/mL in Treatment B, 17.30 (17.05) ng/mL in Treatment C, and 18.01 (14.32) ng/mL in Treatment D. The trend of serum GH concentration changes in all 4 treatment groups was similar, except for the serum GH concentration in Treatment A that approached the peak concentration sooner, relative to the other treatments, at 0.5 h post-dose.

[4] = Part 1, Treatment A: five 18 mg tablets (90 mg), fasted
[5] = Part 1, Treatment B: 85.3 mg whole capsule, fasted
[6] = Part 1, Treatment C: 85.3 mg capsule contents (dry), fasted
[7] = Part 1, Treatment D: 85.3 mg capsule contents in banana puree

CC(C)(N)C(=O)N[C@H](COCc1ccccc1)C(=O)N1CCC2(CC1)CN(S(C)(=O)=O)c1ccccc12 [LUM-201, N-[1(R)-[(1,2-dihydro-1-methanesulfonylspiro[3H-indole-3,4′-piperdin]-yl)carbonyl]-2-(phenylmethyloxy)ethyl]-2-amino-2-methylpropanamide methanesulfonate]
serum IGF-1 concentration, mean (SD) ([1]; 24 h post-dose, Part 1, Treatment A: five 18 mg tablets (90 mg), fasted): 224.7 (48.70) ng/mL | serum IGF-1 concentration, mean (SD) ([1]; 24 h post-dose, Part 1, Treatment B: 85.3 mg whole capsule, fasted): 224.2 (50.24) ng/mL | serum IGF-1 concentration, mean (SD) ([1]; 24 h post-dose, Part 1, Treatment C: 85.3 mg capsule contents (dry), fasted): 230.4 (60.81) ng/mL | serum IGF-1 concentration, mean (SD) ([1]; 24 h post-dose, Part 1, Treatment D: 85.3 mg capsule contents in banana puree): 223.7 (56.75) ng/mL | serum IGF-1 concentration, mean (SD) ([1]; pre-dose, Part 1, Treatment A: five 18 mg tablets (90 mg), fasted): 200.9 (50.41) ng/mL | serum IGF-1 concentration, mean (SD) ([1]; pre-dose, Part 1, Treatment B: 85.3 mg whole capsule, fasted): 192.6 (50.55) ng/mL | serum IGF-1 concentration, mean (SD) ([1]; pre-dose, Part 1, Treatment C: 85.3 mg capsule contents (dry), fasted): 192.5 (47.67) ng/mL | serum IGF-1 concentration, mean (SD) ([1]; pre-dose, Part 1, Treatment D: 85.3 mg capsule contents in banana puree): 195.8 (47.16) ng/mL | serum IGF-1 concentration ([2]; 24 h post-dose, Part 2, Treatment A: 85.3 mg capsule, fasted): 244.7 (37.66) ng/mL | serum IGF-1 concentration ([2]; 24 h post-dose, Part 2, Treatment B: 85.3 mg capsule after high-fat meal): 220.8 (43.50) ng/mL | serum IGF-1 concentration values and trend, fasted vs fed ([2]; Part 2, Treatment A (fasted state) and Treatment B (fed state)): comparable | serum IGF-1 concentration ([2]; pre-dose, Part 2, Treatment A: 85.3 mg capsule, fasted): 209.2 (54.28) ng/mL | serum IGF-1 concentration ([2]; pre-dose, Part 2, Treatment B: 85.3 mg capsule after high-fat meal): 188.8 (26.11) ng/mL | serum GH concentration, peak, mean (SD) [3, 4]: 17.10 (15.07) ng/mL | serum GH concentration, peak, mean (SD) [3, 5]: 16.55 (16.36) ng/mL | serum GH concentration, peak, mean (SD) [3, 6]: 17.30 (17.05) ng/mL | serum GH concentration, peak, mean (SD) [3, 7]: 18.01 (14.32) ng/mL | PD parameters, capsule versus tablets ([3]; Part 1, serum GH and serum IGF-1, 4 treatment groups): no observed differences | serum GH concentration, mean (SD) [3, 4]: 0.2970 (0.7404) ng/mL | serum GH concentration, mean (SD) [3, 5]: 0.2052 (0.3174) ng/mL | serum GH concentration, mean (SD) [3, 6]: 0.5303 (1.354) ng/mL | serum GH concentration, mean (SD) [3, 7]: 0.1454 (0.1981) ng/mL
